Measured values taken from patent US20080234304A1, “N3-Pyridyl-Thiamine And Its Use In Cancer Treatments” (AVEO PHARMACEUTICALS, INC., priority 2004, published 2008).
Entries after “also recorded” stand apart in the source; their conditions may differ. Read-outs that look alike come from different tables or passages of the source.

How the values were obtained:
transketolase = biological target: T1, transketolase (Homo sapiens, UniProt P29401); assay: transketolase activity in cell based assay (lysates of N3PT-treated cells, GAPDH-coupled NADH readout)
T1 construct: Cells were lysed by vortexing and cell extracts assayed for transketolase activity; endogenous in cells; other cell lines not specified
T1 sequence (P29401 1-623): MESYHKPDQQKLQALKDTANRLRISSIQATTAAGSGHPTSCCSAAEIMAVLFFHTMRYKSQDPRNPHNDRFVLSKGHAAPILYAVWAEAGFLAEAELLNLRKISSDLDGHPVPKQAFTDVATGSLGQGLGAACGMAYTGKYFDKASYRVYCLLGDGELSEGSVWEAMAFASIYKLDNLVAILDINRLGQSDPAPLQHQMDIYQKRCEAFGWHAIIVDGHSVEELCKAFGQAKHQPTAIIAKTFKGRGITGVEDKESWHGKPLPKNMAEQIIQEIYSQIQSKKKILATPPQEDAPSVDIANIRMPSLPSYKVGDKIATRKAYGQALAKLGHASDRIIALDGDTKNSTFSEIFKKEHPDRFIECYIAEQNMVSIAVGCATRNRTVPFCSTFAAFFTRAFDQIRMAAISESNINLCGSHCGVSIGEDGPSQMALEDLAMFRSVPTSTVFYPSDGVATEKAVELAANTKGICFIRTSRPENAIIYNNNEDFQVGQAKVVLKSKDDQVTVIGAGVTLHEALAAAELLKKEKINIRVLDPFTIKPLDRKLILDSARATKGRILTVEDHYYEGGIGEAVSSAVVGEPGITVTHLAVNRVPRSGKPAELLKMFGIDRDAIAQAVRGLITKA
Method: Human carcinoma cell lines, such as, but not restricted to, HCT116, HT1080, DLD-1, Rv22, MIA PA CA-2, HCT-15, and murine cell lines, CT26, 4T1 (all cell lines described are available from the ATCC), were cultured in standard conditions (37 C, 5% CO2) in DMEM media (10% FBS, 1% Penicillin-Streptomycin) and harvested at 60-80% confluency by trypsinization. Approximately 2 million cells were collected in an Eppendorf tube and washed 2 times (2×) with PBS by centrifugation and stored at −20° C. as cell pellets. Ice-cold lysis buffer (1 ml) (20 mM HEPES, pH 7.5, 1 mM EDTA, 0.2 g/l Triton X-100 and 0.2 g/L sodium deoxycholate, supplemented with 1 mM DTT and 1 mM PMSF just before use) was added to each cell pellet. Cells were lysed by vortexing and cell extracts assayed for transketolase activity at pH 7.5, by coupling a subsequent glyceraldehyde-3-phosphate dehydrogenase (GAPDH) reaction and measuring conversion of NAD to NADH (FIG. 1).
The assay was carried out as follows. […] of […] assay buffer containing final concentrations of 50 mM HEPES, 40 mM KCl, 2.5 mM MgCl2, 5 mM NaArsenate, 1 mM NAD, 2 unit/ml glyceraldehydes-3-phosphate dehydrogenase (GAPDH) was added to 80 μl of lysate. Reaction kinetics were monitored on a fluorescent plate reader to allow any possible background activity via GAPDH to burn out. Then 5 ul of substrate mix containing final concentrations of 0.5 mM ribose-5-phosphate and 0.5 mM xylulose-5-phosphate was added to initiate the reaction. The reaction kinetics were monitored using a fluorescent plate reader, and the slope of the initial linear range was recorded as the velocity of the reaction (FU/min).
TK, kGDH and PDH enzymes all utilize thiamine pyrophosphate (TPP) as a co-factor for their catalysis. Conventional cell culture media (e.g., DMEM, RPMI) have high levels of thiamine (12 μM and 3 μM, respectively). […]
Log-phase growing cells were trypsinized and resuspended in TDM. […] TK activities could be measured from ≧5000 cells in most cell lines tested. […]
Enzymatic inhibition was expressed as percent of control cells that were not treated with compounds. […]

[1] = biological target: purified apotransketolase; assay: inhibition of purified apotransketolase; assay type: biochemical
Source text: N3PT is a thiamine (vitamin B1) derivative. Thiamine pyrophosphate (TPP) is a co-factor for catalysis by the enzyme transketolase (as well as for the enzymes kGDH and PDH). […] A standard method for isolating and measuring the IC50 of apotransketolase is described in Konig et al., J. Biol. Chem. 269: 10879-82 (1994).

HCT116 = assay: inhibition of proliferation of HCT116 cells; assay type: cell-based, human; details: HCT116 colon carcinoma
Method: The ability of N3PT to inhibit proliferation of these cell lines was then tested. LAMA84 was the most sensitive to N3PT, displaying an IC50 of 0.3 μM. The other cell lines, HCT116 and K562, were less sensitive, displaying an IC50 of approximately 2 μM in both cases. LAMA84 also had the highest TK activity (per cell) among these three cancer lines.

## Cc1ccc(C[n+]2csc(CCO)c2C)c(N)n1 [N3PT, 3-[(2-amino-6-methyl-3-pyridinyl)methyl]-5-(2-hydroxyethyl)-4-methyl thiazolium]
transketolase; cells treated two days, washed out, TK monitored days 3-7
  duration of inhibition of cellular transketolase activity: long lasting; also recorded: persists for several days
transketolase; extracts from cells incubated with increasing concentrations of N3PT, read-out: IC50 transketolase (selectivity comparison, FIG. 9)
  IC50: 7 nM
transketolase; production of glyceraldehyde-3-phosphate by transketolase, read-out: IC50 transketolase in cell assays
  IC50: 27 nM
[1]
  IC50: 21 nM
HCT116
  IC50: ~2000 nM
